The values that follow come from patent US10512700B2, “Radiohalide-labeled targeted diagnostics and therapeutics” (Memorial Sloan Kettering Cancer Center, priority 2014, dated 2019).

Data set [1] is described as follows: Plasma protein binding, Rapid Equilibrium Dialysis. The class given is in vitro ADME, mouse. Also noted: fraction unbound at 4 h: dose or concentration left out as unconfirmed. The note with it: 4 h at 37° C.; for % plasma free fraction: 10 μM in mouse serum; for Plasma protein binding: 500 μM in mouse serum. Here is the method:
The plasma protein fraction was determined using the Rapid Equilibrium Dialysis Device System (LifeTechnologies, Grand Island, N.Y.) according to the manufacturer's protocol.
For each of the iodinated compounds, membrane dialysis was performed with 10 μM of the compound in mouse serum (500 μL) on one side of the membrane and PBS (750 μL) on the other side. The system was sealed with parafilm and incubated for 4 h at 37° C. on an orbital shaker set to 250 rpm. Thereafter, 400 μL of solution was taken from both sides, and samples were treated twice with an equal amount of AcN and vortexed to remove protein before HPLC analysis. After injection (100 μL), the compound peaks from each sample were then integrated, and the protein bound fraction was determined as % bound=[1−(Concentration buffer chamber/Concentration plasma chamber)]×100. The data was analyzed using Prism 6.0c (GraphPad Software, La Jolla, Calif.).
The system was sealed with parafilm and incubated for 4 h at 37° C. on an orbital shaker set to 100 rpm. Thereafter, 50 μL of solution was taken from both sides, and samples were treated with 300 μL of precipitation buffer (90/10 acetonitrile/water with 0.1% formic acid) and vortexed to remove protein before HPLC analysis. […] The data was analyzed using Prism 6.0c (GraphPad Software, La Jolla, Calif.).

The nature of data set [2]: Chromatographic Hydrophobicity Index (CHI) and log PCHI determination. The settings on record: for chromatographic logP: reverse phase HPLC, read-out: logPCHI. The class given is physicochemical. As to the method: Chromatographic Hydrophobicity Index (CHI) was determined according to the procedures reported in K. Valko et al, “Chromatographic Hydrophobicity Index by Fast-Gradient RP-HPLC: A High-Throughput Alternative to log P/log D”, Anal. Chem. 1997, 69:2022-29, incorporated by reference herein in its entirety. Briefly, a series of standards with known CHIs were analyzed with reverse phase HPLC. Retention times of the standards along with their known CHIs were plotted with Prism 6.0c software (GraphPad, La Jolla, Calif.). A line was fit to the data to create a calibration curve, which was then used to calculate the CHI of the test chemical entity based on the HPLC retention time.
The log PCHI value was determined according to K. Valko, 1997.

Data set [3] relates to U251 MG cells. Nature of the data set: In vitro blocking study, competitive inhibition of PARP1i-FL uptake. Format: cell-based, human. The settings on record: 5 μM (10-fold excess) with PARP1i-FL 500 nM, 30 minutes. As to the method: (§1) U251 MG or U373 MG (1×10^4 cells per well) cells were seeded into 12 wells each on a 96-well plate and cultured for 24 hours. […] Following incubation, cells were washed twice with media and twice with PBS and imaged with a Zeiss LSM 5Live confocal microscope (images not shown). Fluorescence intensity was then quantified from the images using ImageJ 1.47 u processing software (see FIG. 3).

Data set [4] concerns U373 MG cells. Described as above. Format: cell-based, human. The settings on record: 5 μM (10-fold excess) with PARP1i-FL 500 nM, 30 minutes. Here is the method:
as §1

The target of data set [5] is T1, PARP1 (Homo sapiens, UniProt P09874).
T1 construct: purchased Trevigen
T1 sequence (P09874 whole entry, species assumed): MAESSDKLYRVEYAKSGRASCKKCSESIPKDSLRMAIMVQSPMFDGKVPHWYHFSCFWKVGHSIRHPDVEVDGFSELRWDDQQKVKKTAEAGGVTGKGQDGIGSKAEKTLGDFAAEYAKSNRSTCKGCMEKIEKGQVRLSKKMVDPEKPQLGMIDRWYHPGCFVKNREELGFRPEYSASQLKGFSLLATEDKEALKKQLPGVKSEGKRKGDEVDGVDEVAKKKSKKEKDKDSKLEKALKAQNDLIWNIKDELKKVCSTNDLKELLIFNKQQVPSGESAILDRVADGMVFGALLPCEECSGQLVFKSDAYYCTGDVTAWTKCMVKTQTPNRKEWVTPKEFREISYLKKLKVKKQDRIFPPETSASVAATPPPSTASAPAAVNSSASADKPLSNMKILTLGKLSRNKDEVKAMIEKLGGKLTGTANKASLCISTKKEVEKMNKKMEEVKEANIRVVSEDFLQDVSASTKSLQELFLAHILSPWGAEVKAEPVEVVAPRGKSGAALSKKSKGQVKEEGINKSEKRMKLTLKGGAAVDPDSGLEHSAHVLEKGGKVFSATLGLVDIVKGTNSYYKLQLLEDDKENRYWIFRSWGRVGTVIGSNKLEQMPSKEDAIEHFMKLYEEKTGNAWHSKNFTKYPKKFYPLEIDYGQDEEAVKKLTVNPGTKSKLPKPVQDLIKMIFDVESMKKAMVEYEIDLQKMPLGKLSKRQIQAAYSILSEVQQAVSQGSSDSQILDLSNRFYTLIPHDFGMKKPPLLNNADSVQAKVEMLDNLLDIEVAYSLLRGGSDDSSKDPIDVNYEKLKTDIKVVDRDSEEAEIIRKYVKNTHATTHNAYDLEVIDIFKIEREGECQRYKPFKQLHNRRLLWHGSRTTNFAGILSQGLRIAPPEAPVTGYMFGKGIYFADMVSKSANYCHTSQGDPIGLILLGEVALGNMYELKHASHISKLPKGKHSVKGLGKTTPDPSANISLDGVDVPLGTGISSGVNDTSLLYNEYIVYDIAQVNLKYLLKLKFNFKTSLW
The data set is described as follows: IC50 determination, Universal PARP Colorimetric Assay Kit. The class given is biochemical. The settings on record: Table 2, measured against PARP1. Here is the method:
Inhibition of PARP1 was measured using the Universal PARP Colorimetric Assay Kit (Trevigen®, Gaithersburg, Md.). IC50 values were calculated using Prism 6.0c software (GraphPad, La Jolla, Calif.).
All experiments were carried out in triplicate.

For data set [6] the following is noted: reported for olaparib; cited from earlier work.

Where two headings read alike, the source gives them in different places.

Turning to `O=C(c1cccc(I)c1)N1CCN(C(=O)c2cc(Cc3n[nH]c(=O)c4ccccc34)ccc2F)CC1` [c-1 (^127I), 4-(4-fluoro-3-(4-(3-iodobenzoyl)piperazine-1-carbonyl)benzyl)-phthalazin-1(2H)-one], the “% plasma free fraction” value in data set [1] is 9.6 ± 1.5%.

A word on the fraction unbound: it is free concentration divided by total concentration. As to `O=C(c1ccc(F)cc1)N1CCN(C(=O)c2cc(Cc3n[nH]c(=O)c4ccccc34)ccc2F)CC1` [c-2 (^19F)], in data set [2] (Table 3), the CHI came to 57.5, the logPCHI turned out to be 2.15±0.41 and the chromatographic logP was determined as 2.15 ± 0.41. Moreover, the Plasma protein binding in data set [1] was 63.9 ± 12.6%. In addition, the free fraction (fraction unbound) at 4 h in data set [1] (mouse, mouse serum) is 0.36. Further, in data set [3], the “reduction of fluorescence intensity in the nucleus” value (shortened to “reduction of fluorescence intensity”) is 80.0%±10.8%. Also, the “reduction of fluorescence intensity” value in data set [4] is 78.8%±10.4%.

As for `O=C(c1ccc(I)cc1)N1CCN(C(=O)c2cc(Cc3n[nH]c(=O)c4ccccc34)ccc2F)CC1` [c-2 (^127I), 4-(4-fluoro-3-(4-(4-iodobenzoyl)piperazine-1-carbonyl)benzyl)-phthalazin-1(2H)-one], in data set [1], the “% plasma free fraction” value was found to be 11.5 ± 0.1%.

What is called IC50 is the point on the concentration scale where inhibition reaches its midpoint. Consider `O=C(Cc1cccc(I)c1)N1CCN(C(=O)c2cc(Cc3n[nH]c(=O)c4ccccc34)ccc2F)CC1` [c-3 (^127I), 4-(4-fluoro-3-(4-(2-(3-iodophenyl)acetyl)piperazine-1-carbonyl)-benzyl)phthalazin-1(2H)-one], for which, in data set [2] (Table 2), the CHI is given as 66.7 and the chromatographic logP worked out at 2.7. Besides, the “% plasma free fraction” value in data set [1] turned out to be 7.0 ± 0.1%. Also, the half-maximal inhibitory concentration (IC50) in data set [5] amounted to 34 ± 3 nM.

`O=C(Cc1ccc(I)cc1)N1CCN(C(=O)c2cc(Cc3n[nH]c(=O)c4ccccc34)ccc2F)CC1` [c-4 (^127I), 4-(4-fluoro-3-(4-(2-(4-iodophenyl)acetyl)piperazine-1-carbonyl)-benzyl)phthalazin-1(2H)-one]: in data set [2] (Table 2), the CHI is listed as 66.7 and the chromatographic logP was 2.7. Further, the “% plasma free fraction” value in data set [1] is recorded as 5.0 ± 0.3%. This molecule showed an IC50 in data set [5] of 74 ± 5 nM.

For `O=C(CCc1cccc(I)c1)N1CCN(C(=O)c2cc(Cc3n[nH]c(=O)c4ccccc34)ccc2F)CC1` [c-5 (^127I), 4-(4-fluoro-3-(4-(3-(3-iodophenyl)propanoyl)piperazine-1-carbonyl)benzyl)phthalazin-1(2H)-one], in data set [2] (Table 2), the CHI came to 71.6 and the chromatographic logP was determined as 3. Also, the “% plasma free fraction” value in data set [1] turned out to be 7.8 ± 1.4%. Besides, the IC50 in data set [5] stood at 107 ± 4 nM.

For the molecule `O=C(CCc1ccc(I)cc1)N1CCN(C(=O)c2cc(Cc3n[nH]c(=O)c4ccccc34)ccc2F)CC1` [c-6 (^127I), 4-(4-fluoro-3-(4-(3-(4-iodophenyl)propanoyl)piperazine-1-carbonyl)benzyl) phthalazin-1(2H)-one], in data set [2] (Table 2), the CHI came out at 71.6 and the chromatographic logP worked out at 3. In addition, the “% plasma free fraction” value in data set [1] was determined as 4.7 ± 0.5%. In data set [5], this molecule registered an IC50 of 47 ± 5 nM.

Take `O=C(c1cc(Cc2n[nH]c(=O)c3ccccc23)ccc1F)N1CCN(C(=O)C2CC2)CC1` [olaparib, 4-[3-(4-cyclopropanecarbonylpiperazine-1-carbonyl)-4-fluorobenzyl]-2H-phthalazin-1-one, reference compound]: the Plasma protein binding in data set [1] is 65%. Moreover, the “reduction of fluorescence intensity” value in data set [3] is given as 69.6%±22.3%; in data set [4], 71.2%±20.0%. In addition, the CHI in data set [6] is 34.1. Further, the logPCHI in data set [6] is given as 0.8.
